Results from US8183271B2, “Tetrazole derivatives and their use for the treatment of cardiovascular diseases” (Bayer Intellectual Property GmbH, priority 2005, dated 2012).

tested on: saphenous artery rings; assay: Vasorelaxant effect in vitro (phenylephrine-contracted artery rings); assay type: cell-based, Rabbits; details: Oryctolagus cuniculus, rabbit saphenous artery rings, contraction induced by phenylephrine
Description: Rabbits are anesthetized and sacrificed by intravenous injection of thiopental sodium (about 50 mg/kg) and exsanguinated. The saphenous artery is removed and divided into rings 3 mm wide. The rings are mounted singly on in each case a pair of triangular hooks open at the end and made of 0.3 mm-thick special wire (Remanium®). Each ring is placed under an initial tension in 5 ml organ baths with Krebs-Henseleit solution which is at 37° C., is gassed with 95% O2/5% CO2 and has the following composition: NaCl 119 mM; KCl 4.8 mM; CaCl2×2H2O 1 mM; MgSO4×7H2O 1.4 mM; KH2PO4 1.2 mM; NaHCO3 25 mM; glucose 10 mM; bovine serum albumin 0.001%. The force of contraction is detected with Statham UC2 cells, amplified and digitized via A/D converters (DAS-1802 HC, Keithley Instruments, Munich) and recorded in parallel on chart recorders. Contractions are induced by addition of phenylephrine.
After several (generally 4) control cycles, the substance to be investigated is added in each further run in increasing dosage, and the height of the contraction achieved under the influence of the test substance is compared with the height of the contraction reached in the last preceding run. The concentration necessary to reduce the contraction reached in the preceding control by 50% is calculated from this (IC50). The standard application volume is 5 μl. The proportion of DMSO in the bath solution corresponds to 0.1%.

Row | SMILES | IC50 [nM]
1 | COc1ccc(CCc2ccc(F)cc2/C=C\C(CCc2ccc(C(=O)O)cc2)Cc2ccc(-c3nnn[nH]3)cc2)cc1 (centres unmarked) [Example 17, 4-{(4Z)-5-{5-Fluoro-2-[2-(4-methoxyphenyl)ethyl]phenyl}-3-[4-(1H-tetrazol-5-yl)benzyl]pent-4-en-1-yl}benzoic acid] | 5800
2 | O=C(O)c1ccc(CCC(/C=C/c2ccccc2OCc2cc(C(F)(F)F)cc(C(F)(F)F)c2)CCCCc2nnn[nH]2)cc1 (centres unmarked) [Example 39] | 150
3 | O=C(O)c1ccc(CCC(/C=C/c2ccccc2OCc2ccc(OC(F)(F)F)cc2)CCCCc2nnn[nH]2)cc1 (centres unmarked) [Example 38] | 567
4 | COc1ccc(CCc2ccc(F)cc2/C=C/C(CCc2ccc(C(=O)O)cc2)Cc2ccc(-c3nnn[nH]3)cc2)cc1 (centres unmarked) [Example 18, 4-{(4E)-5-{5-Fluoro-2-[2-(4-methoxyphenyl)ethyl]phenyl}-3-[4-(1H-tetrazol-5-yl)benzyl]pent-4-en-1-yl}benzoic acid] | 890
5 | O=C(O)c1ccc(CCC(/C=C/c2ccccc2OCCCCCc2ccccc2)Cc2ccc(-c3nnn[nH]3)cc2)cc1 (single isomer, unassigned) [Example 14, 4-{(4E)-5-{2-[(5-Phenylpentyl)oxy]phenyl}-3-[4-(1H-tetrazol-5-yl)benzyl]pent-4-en-1-yl}benzoic acid] | 1320

Further lines, results first:

Row | IC50 [nM] | SMILES
6 | 372 | O=C(O)c1ccc(CCC(/C=C/c2ccccc2OCc2ccc(-c3ccc(C(F)(F)F)cc3)cc2)Cc2ccc(-c3nnn[nH]3)cc2)cc1 (centres unmarked) [Example 21, 4-[(4E)-3-[4-(1H-Tetrazol-5-yl)benzyl]-5-(2-{[4′-(trifluoromethyl)biphenyl-4-yl]-methoxy}phenyl)pent-4-en-1-yl]benzoic acid]
7 | 760 | CC(C)(C)c1ccc(COc2ccccc2/C=C/C(CCCCC(=O)O)Cc2ccc(-c3nnn[nH]3)cc2)cc1 (single isomer, unassigned) [Example 36, (7E)-8-{2-[(4-tert-Butylbenzyl)oxy]phenyl}-6-[4-(1H-tetrazol-5-yl)benzyl]oct-7-enoic acid]
8 | 1990 | CC(C)(C)c1ccc(COc2ccccc2/C=C/C(CCCCC(=O)O)CCc2ccc(-c3nnn[nH]3)cc2)cc1 (single isomer, unassigned) [Example 29, (7E)-8-{2-[(4-tert-Butylbenzyl)oxy]phenyl}-6-{2-[4-(1H-tetrazol-5-yl)phenyl]ethyl}oct-7-enoic acid]
9 | 682 | CC(C)(C)c1ccc(COc2ccccc2/C=C/C(CCc2ccc(-c3nnn[nH]3)cc2)Cc2ccc(C(=O)O)cc2)c(Cl)c1 (single isomer, unassigned) [Example 3, 4-((3E)-4-{2-[(4-tert-Butyl-2-chlorobenzyl)oxy]phenyl}-2-{2-[4-(1H-tetrazol-5-yl)phenyl]ethyl}but-3-en-1-yl)benzoic acid]

same assay, conditions: rabbit saphenous artery rings, contraction induced by phenylephrine

Row | IC50 [nM] | SMILES
10 | 559 | CC(C)(C)c1ccc(COc2ccccc2/C=C/C(CCCCc2nnn[nH]2)CCc2ccc(C(=O)O)cc2)cc1 (single isomer, unassigned) [Example 26, 4-[3-((E)-2-{2-[(4-tert-Butylbenzyl)oxy]phenyl}vinyl)-7-(1H-tetrazol-5-yl)heptyl]benzoic acid]
11 | 102 | CC(C)(C)c1ccc(COc2ccccc2/C=C/C(CCc2ccc(C(=O)O)cc2)Cc2ccc(-c3nnn[nH]3)cc2)cc1 (single isomer, unassigned) [Example 24, 4-{(4E)-5-{2-[(4-tert-Butylbenzyl)oxy]phenyl}-3-[4-(1H-tetrazol-5-yl)benzyl]pent-4-en-1-yl}benzoic acid]
12 | 2510 | CC(C)(C)c1ccc(COc2ccccc2/C=C/C(CCc2ccc(-c3nnn[nH]3)cc2)Cc2ccc(C(=O)O)cc2)cc1 (single isomer, unassigned) [Example 5, 4-((3E)-4-{2-[(4-tert-Butylbenzyl)oxy]phenyl}-2-{2-[4-(1H-tetrazol-5-yl)phenyl]ethyl}but-3-en-1-yl)benzoic acid]
13 | 3890 | CC(C)(C)c1ccc(COc2ccccc2/C=C/C(CCc2ccc(C(=O)O)cc2)Cc2ccc(-c3nnn[nH]3)cc2)cc1 (single isomer, unassigned) [Example 23, 4-{(4E)-5-{2-[(4-tert-Butylbenzyl)oxy]phenyl}-3-[4-(1H-tetrazol-5-yl)benzyl]pent-4-en-1-yl}benzoic acid]
14 | 9.7 | CC(C)(C)c1ccc(COc2ccccc2/C=C/C(CCCCc2nnn[nH]2)CCc2ccc(C(=O)O)cc2)cc1 (single isomer, unassigned) [Example 27, 4-[3-((E)-2-f{2-[(4-tert-Butylbenzyl)oxy]phenyl}vinyl)-7-(1H-tetrazol-5-yl)heptyl]benzoic acid]

target: T1, Heme-free sGC (recombinant soluble guanylate cyclase) (Rattus norvegicus, UniProt P20595); assay: Stimulation of recombinant soluble guanylate cyclase (sGC) in vitro, heme-free enzyme; assay type: biochemical; details: 10 μM ODQ, 0.0 μM Example 6
T1 construct: made in house
T1 sequence (P20595 1-619): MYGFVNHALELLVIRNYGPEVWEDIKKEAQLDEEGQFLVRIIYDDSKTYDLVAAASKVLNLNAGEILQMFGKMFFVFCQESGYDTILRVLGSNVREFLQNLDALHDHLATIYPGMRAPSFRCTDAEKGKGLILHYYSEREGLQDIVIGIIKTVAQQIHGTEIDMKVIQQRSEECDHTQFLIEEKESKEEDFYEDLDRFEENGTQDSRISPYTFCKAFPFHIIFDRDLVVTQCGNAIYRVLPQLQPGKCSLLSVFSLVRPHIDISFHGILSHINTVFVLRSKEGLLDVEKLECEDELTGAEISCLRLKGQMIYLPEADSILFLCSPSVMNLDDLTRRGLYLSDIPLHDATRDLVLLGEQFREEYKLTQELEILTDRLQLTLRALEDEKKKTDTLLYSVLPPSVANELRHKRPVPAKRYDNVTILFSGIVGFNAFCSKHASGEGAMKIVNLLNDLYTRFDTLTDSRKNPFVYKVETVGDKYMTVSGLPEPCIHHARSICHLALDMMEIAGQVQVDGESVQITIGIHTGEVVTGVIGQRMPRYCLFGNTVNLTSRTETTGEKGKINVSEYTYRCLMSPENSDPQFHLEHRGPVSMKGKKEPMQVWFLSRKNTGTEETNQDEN
T1 sequence (P19686 1-690 partner): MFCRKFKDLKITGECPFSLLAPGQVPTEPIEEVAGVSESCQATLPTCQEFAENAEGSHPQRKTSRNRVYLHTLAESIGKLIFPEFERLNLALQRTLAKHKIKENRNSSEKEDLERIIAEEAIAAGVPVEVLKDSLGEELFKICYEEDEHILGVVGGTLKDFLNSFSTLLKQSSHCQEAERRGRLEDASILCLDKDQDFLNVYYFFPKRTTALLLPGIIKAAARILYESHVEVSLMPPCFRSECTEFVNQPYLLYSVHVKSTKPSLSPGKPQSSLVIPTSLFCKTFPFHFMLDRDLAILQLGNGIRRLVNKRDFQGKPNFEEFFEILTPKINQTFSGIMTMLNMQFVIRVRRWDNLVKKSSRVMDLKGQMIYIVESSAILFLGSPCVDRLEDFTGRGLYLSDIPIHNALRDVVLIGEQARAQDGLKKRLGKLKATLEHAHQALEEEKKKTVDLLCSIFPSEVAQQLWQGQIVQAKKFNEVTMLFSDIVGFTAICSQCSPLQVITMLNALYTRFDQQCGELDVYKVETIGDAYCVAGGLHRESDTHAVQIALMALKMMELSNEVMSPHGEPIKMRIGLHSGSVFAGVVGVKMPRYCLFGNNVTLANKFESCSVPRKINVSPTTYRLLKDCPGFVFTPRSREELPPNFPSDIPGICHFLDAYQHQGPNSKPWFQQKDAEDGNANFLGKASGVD
Description: Investigations on the stimulation of recombinant soluble guanylate cyclase (sGC) by the compounds according to the invention with and without sodium nitroprusside, and with and without the heme-dependent sGC inhibitor 1H-1,2,4-oxadiazole-(4,3a)-quinoxalin-1-one (ODQ) are carried out by the method described in detail in the following reference: M. Hoenicka, E. M. Becker, H. Apeler, T. Sirichoke, H. Schroeder, R. Gerzer and J.-P. Stasch, “Purified soluble guanylyl cyclase expressed in a baculovirus/Sf9 system: Stimulation by YC-1, nitric oxide, and […]”, J. Mol. Med. 77 (1999), 14-23. The heme-free guanylate cyclase is obtained by adding Tween 20 to the sample buffer (0.5% in the final concentration).
(§1) The activation of sGC by a test substance is reported as n-fold stimulation of the basal activity.

Row | Stimulation (n-fold) Heme-free sGC with ODQ alone [n-fold] | SMILES
15 | 1.2 | O=c1onc2cnc3ccccc3n12 [ODQ, 1H-1,2,4-oxadiazole-(4,3a)-quinoxalin-1-one, reference compound]

target: T2, Heme-containing sGC (recombinant soluble guanylate cyclase) (Rattus norvegicus, UniProt P20595); assay: Stimulation of recombinant soluble guanylate cyclase (sGC) in vitro, heme-containing enzyme; assay type: biochemical; details: 0.1 μM DEA/NO, 0.0 μM Example 6
T2 construct: made in house
T2 sequence (P20595 1-619): T1 sequence (P20595 1-619)
T2 sequence (P19686 1-690 partner): T1 sequence (P19686 1-690 partner)
Text: Hoenicka, E. M. Becker, H. Apeler, T. Sirichoke, H. Schroeder, R. Gerzer and J.-P. Stasch, “Purified soluble guanylyl cyclase expressed in a baculovirus/Sf9 system: Stimulation by YC-1, nitric oxide, and carbon oxide”, J. Mol. Med. 77 (1999), 14-23. The heme-free guanylate cyclase is obtained by adding Tween 20 to the sample buffer (0.5% in the final concentration).
as §1

Row | SMILES | Stimulation (n-fold) Heme-containing sGC by DEA/NO alone [n-fold]
16 | CCN(CC)[N+]([O-])=NO [DEA/NO, 2-(N,N-diethylamino)diazenolate 2-oxide, reference compound] | 64.1

same assay, conditions: 10 μM ODQ, 0.0 μM Example 6

Row | Stimulation (n-fold) Heme-containing sGC with ODQ alone [n-fold] | SMILES
17 | 2.4 | O=c1onc2cnc3ccccc3n12 [ODQ, 1H-1,2,4-oxadiazole-(4,3a)-quinoxalin-1-one, reference compound]
